According to patent EP0469548B1, “4-Amino-delta4-steroids and their use as 5alpha-reductase inhibitors” (MERRELL PHARMACEUTICALS INC., priority 1990, dated 1992):

biological target: T1, steroid 5α-reductase enzyme (Homo sapiens, UniProt P31213); assay: 5α-reductase inhibition in microsomal preparations (conversion of testosterone to dihydrotestosterone, HPLC); assay type: biochemical
T1 construct: Microsomal preparations of the steroid 5α-reductase enzyme (protein) were obtained from human prostate tissue; from tissue; host or cells: human prostate tissue (microsomal preparation)
T1 sequence (P31213 1-254): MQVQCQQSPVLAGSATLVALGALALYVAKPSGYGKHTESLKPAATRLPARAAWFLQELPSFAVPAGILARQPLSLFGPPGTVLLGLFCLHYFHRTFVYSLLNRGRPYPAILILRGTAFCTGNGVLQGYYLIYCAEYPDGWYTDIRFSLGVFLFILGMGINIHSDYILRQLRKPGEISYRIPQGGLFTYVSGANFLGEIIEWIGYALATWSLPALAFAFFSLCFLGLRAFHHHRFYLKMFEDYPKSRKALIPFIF
Procedure: Microsomal preparations of the steroid 5α-reductase enzyme (protein) were obtained from human prostate tissue and stored in aliquots. Protein concentration was determined prior to use of the samples. In the method itself, individual assays for 5α-reductase activity contained 0.1M phosphate citrate buffer, pH 5.6, 1mM EDTA, 7 to 22 µg of microsomal protein, 1mM NADPH, 5 mM glucose-6-phosphate, 1 IU/ml glucose-6-phosphate dehydrogenase, 1,2-³H-testosterone, and test compound, dissolved in dimethyl sulfoxide and then diluted in phosphate-citrate buffer to yield a final assay concentration of 0.1% (v/v) dimethyl sulfoxide. The same buffer and the same quantity of dimethyl sulfoxide, without any test compound was used for the control assays. The total assay volume was 100 µl and assays were performed in duplicate. The reaction was initiated by the addition of the testosterone, and incubated for 30 minutes at 25°C. The assay is linear with time to 30 minutes.
Depending on the nature of the inhibition, testosterone concentration was typically varied from 0.15 µM (approximately 0.5 Km) to 10 Km with radioactive label constant at 0.15 µCi per assay. The amount of test compound added was varied to provide final concentrations of 1 nM to 100 µM. The reaction was quenched by the addition of 50 volumes of chloroform:methanol (2:1). The steroids were then extracted and separated by high pressure liquid chromatography and the amounts of testosterone and dihydrotestosterone present were measured to determine the percent conversion of testosterone to dihydrotestosterone and to calculate the 5α-reductase activity. The activity of the test compound was then expressed as the IC₅₀, or the concentration of test compound that produced a 50% inhibition of the testosterone conversion. When compounds of the present invention were tested in this way, the following results were observed: […]

| Compound | IC50 [nM] |
| --- | --- |
| CC(C)N(C(=O)[C@H]1CC[C@H]2[C@@H]3CCC4=C(N)C(=O)CC[C@]4(C)[C@H]3CC[C@]12C)C(C)C [4-Amino-N,N-bis(1-methylethyl)-3-oxoandrost-4-ene-17β-carboxamide] | 104 |
| CC(C)(C)NC(=O)[C@H]1CC[C@H]2[C@@H]3CCC4=C(N)C(=O)CC[C@]4(C)[C@H]3CC[C@]12C [4-Amino-N-(1,1-dimethylethyl)-3-oxoandrost-4-ene-17β-carboxamide] | 59 |
| CC(=O)[C@H]1CC[C@H]2[C@@H]3CCC4=C(N)C(=O)CC[C@]4(C)[C@H]3CC[C@]12C [4-Aminopregn-4-ene-3,20-dione] | 50 |
| C[C@H](CO)[C@H]1CC[C@H]2[C@@H]3CCC4=C(N)C(=O)CC[C@]4(C)[C@H]3CC[C@]12C [(20S)-4-Amino-21-hydroxy-20-methylpregn-4-en-3-one] | 54 |
